Source: ChEMBL document CHEMBL5257056, “Accelerated Discovery of Macrocyclic CDK2 Inhibitor QR-6401 by Generative Models and Structure-Based Drug Design” (ACS Med Chem Lett, 2023)

What was measured:
in vitro [1] = conditions: human, microsomes
in vitro [2] = conditions: dog, MDCK-MDR1

O=C1NCCCNC(=O)c2cccc(n2)Nc2cc([nH]n2)[C@H]2CC[C@H](C2)O1
half-life at 0.75 h, 1 µM (in vitro [1]): 1.07 h
Papp A→B at […], 5 µM (in vitro [2]): 0.9 ×10⁻⁶ cm/s
